The values below are quoted from earlier work in publication PMC4019989 (Clinical cancer research : an official journal of the …, 2009).

The test system of this data set is animals. The note with it: cited from earlier work.

Regarding `CC(C)C[C@H](NC(=O)[C@H](Cc1ccccc1)NC(=O)c1cnccn1)B(O)O` [bortezomib], the “Toxicity of consecutive-day dosing” value is “excessive toxicity”.
